Assay results as given in patent publication US8252846B2, “Strategies for delivery of active agents using micelles and particles” (priority 2005, dated 2012).

Assays:
serum nucleases = test: Protection of ISS-DNA from serum nucleases (gel electrophoresis); type: in vitro ADME; settings: 10% serum, 12 hours
Method: The stimuli responsive release of peptides from the PCMs due to the presence of GSH was investigated to determine if the PCMs will release peptide antigens after phagocytosis. The PCMs were incubated with different concentrations of GSH, for 24 hours in 50 mM pH 7.4 PBS buffer, and then analyzed by HPLC to determine the release of peptides. […] Incubation of the PCMs with 10 mM GSH (intracellular levels) induces the release of 71% of peptide, whereas incubation of the PCMs with just buffer causes the release of only 10% of peptides. B. GSH sensitive DNA release. The ability of the PCMs to protect encapsulated ISS-DNA from degradation by serum nucleases was investigated. PCMs were synthesized (as described above) and incubated with 10% serum for 12 hours, these PCMs were then examined by gel electrophoresis to determine the stability of the encapsulated ISS-DNA. As a control, ISS-DNA by itself was incubated with serum. […] C. […] A key advantage of the PCM strategy is that it generates a crosslinked delivery system. This crosslinking should stabilize the PCMs in vivo. The stability of the PCMs to decomposition was investigated by mixing the negatively charged polymer, poly(vinyl sulfate) (PVS) with the PCMs, this mixture was then analyzed by gel electrophoresis to determine the quantity of ISS-DNA displaced by the PVS. […]

[1] = cited from earlier work
[2] = Hydrolysis of polyketal copolymers in buffered water (1H NMR); type: physicochemical; settings: buffer
Method: The molecular weight of the polyketal copolymers was determined by gel permeation chromatography (GPC) using a Shimadzu system (Kyoto, Japan) equipped with a UV detector. THF was used as the mobile phase at a flow rate of 1 mL/min. Polystyrene standards (Peak Mw=1060, 2970, and 10680) from Polymer Laboratories (Amherst, Mass.) were used to establish a molecular weight calibration curve. The hydrolysis of the polyketal copolymers was measured in buffered water at pH values of 1.0 (0.1M HCL), 4.5 (100 mM AcOH) and 7.4 (100 mM) at 37° C. Briefly, 20 mg of the polymer samples were placed in a 5 ml vial, 1 mL of buffer solution was added to each vial, and mixed with a magnetic stir bar. At specific time points, 1 mL of CDCl3 was added to each vial and shaken vigorously, the CDCl3 phase was isolated and analyzed by ^1H NMR, to determine the percent hydrolysis the of ketal linkages in polyketal copolymer.

| Compound | Log P of diol [1] | Estimated half life at pH 7.4 ([2]; pH 7.4) [days] | Half life at pH 4.5 [2] [days] | further results |
| --- | --- | --- | --- | --- |
| 5-TCCATGACGTTCCTGACGTT-3 [ISS-DNA] |  |  |  | Stability of ISS-DNA to serum nucleases (serum nucleases): completely hydrolyzed |
| OCC1CCC(CO)CC1 (stereo not drawn) [1,4-cyclohexanedimethanol] | 1.46 |  |  |  |
| OCCCCCCCCO [1,8-octanediol] | 1.75 |  |  |  |
| poly(cyclohexane-1,4-diyl acetone dimethylene ketal-co-1,5-pentane-acetone dimethylene ketal [PK3] |  | 39 |  | Hydrolysis half life at pH 7.4 (in words) ([2]; pH 7.4): several weeks |
| poly(cyclohexane-1,4-diyl acetone dimethylene ketal-co-1,6-hexane-acetone dimethylene ketal) [PK5] |  | 53 | 4.4 |  |
| poly(cyclohexane-1,4-diyl acetone dimethylene ketal-co-1,8-octane-acetone dimethylene ketal) [PK6] |  | 360 | 18.6 |  |
